Source: patent publication US20250129062A1, “AMORPHOUS SUBSTANCES, CRYSTALS, PHARMACEUTICAL COMPOSITIONS, PREPARATION METHODS AND USES OF THIOHYDANTOIN COMPOUND OR PHARMACEUTICALLY ACCEPTABLE SALT THEREOF” (SUZHOU KINTOR PHARMACEUTICALS, INC., priority 2021, published 2025)
Where “and” joins values, the source holds several entries; their conditions need not be identical. Identical values can stand only once. Like-named read-outs stand apart in the source and are kept apart here.

Tests used:
[1] = Distribution of compound in sebaceous glands and blood of golden hamsters after single skin application; assay type: in vivo; details: for Concentration in sebaceous glands / concentration at 8 h: 8 h
Protocol: 6 male golden hamsters were selected for the experiment, and randomly divided evenly into 2 groups, with three golden hamsters per group. All animals were fasted overnight before administration, and were administered via a route of single application. Sampling was performed at specific time points after administration. Specific information on animal grouping, administration, sampling, etc. were detailed in Table 6.
The amorphous substance of the compound of formula I was weighed and placed in a 50 mL centrifugal tube. A mixed solvent (consisting of 75% v/v ethanol, 15% v/v glyceryl tri (2-ethylhexanoate) and 10% v/v glycerin) was added. After vortexing, heating was performed at 60° C. until the amorphous substance of the compound of formula I was completely dissolved. The amorphous substances of the compound of formula I in the two groups were prepared at 30 mg/mL and 100 mg/mL, respectively, and stored at room temperature in the dark.
After administration, blood was collected into blood collection tubes containing a heparin sodium anticoagulant at corresponding time points. Immediately after collection of whole blood, the blood collection tubes were gently shaken and placed on ice, and then centrifuged (4° C., 4000 rpm, 10 min). The supernatant plasma samples (plasma volume ≥100 μL) were collected, and stored in a refrigerator at about −80° C. The plasma samples were collected for 8 h for analysis.

[2] = Solubility of amorphous substance in solvent systems (supersaturated solution, oscillated 24 h at room temperature, HPLC); assay type: physicochemical; details: dehydrated alcohol 50%: water 50% (w/w), aqueous with cosolvent or surfactant or cyclodextrin, thermodynamic from solid, Dehydrated alcohol 50%: water 50% (w/w); read-out: 24 h solubility
Protocol: The amorphous substance of the compound of formula I was prepared into supersaturated solutions with different solvents, and oscillated under a room temperature condition (a constant temperature). After oscillating for 24 h, sampling was performed, and the content of the sample was detected by HPLC under condition 1.
Condition 1: • Chromatographic column: C18 (150 mm×4.6 mm×3.5 μm); • Mobile phase: binary mobile phase system, mobile phase A was 0.1% formic acid in water, mobile phase B was acetonitrile; • Elution time: 68 min; • Elution mode: gradient elution (in the gradient elution process, mobile phase A had the maximum volume percentage of 95% and the minimum volume percentage of 10%); • Detection wavelength: 270 nm.

For `Cc1ncsc1-c1ccc(CNC(=O)[C@@H]2C[C@@H](O)CN2C(=O)[C@@H](NC(=O)COCCCCOc2ccc(-c3ccc(N4C(=S)N(c5ccc(C#N)c(C(F)(F)F)c5F)C(=O)C4(C)C)cn3)cc2)C(C)(C)C)cc1` [compound of formula I], the “Concentration in sebaceous glands” value ([1]; Left sebaceous gland, dose 1.2 mg, individual animals No. 1-3) was 10900 ng/mL and 20400 ng/mL and 7010 ng/mL, the “Concentration in sebaceous glands” value ([1]; Left sebaceous gland, dose 4 mg, individual animals No. 4-6) was 57100 ng/mL and 15000 ng/mL and 8340 ng/mL and the “Concentration in sebaceous glands” value ([1]; Right sebaceous gland, dose 1.2 mg, individual animals No. 1-3) was 17900 ng/mL and 15700 ng/mL. The “Concentration in sebaceous glands” value ([1]; Right sebaceous gland, dose 4 mg, individual animals No. 4-6) was 19900 ng/mL and 18400 ng/mL, the “distribution between sebaceous glands and blood after skin application” value ([1]; golden hamsters, administration via skin application) was “can enter sebaceous glands, but cannot enter blood” and the “maximum blood drug concentration” value ([1]; group 2, dose 4 mg, over sampling time points 0.25, 0.5, 1, 2, 4, 6 and 8 h) was 10.6 ng/mL. For the same compound, the “Concentration of compound of formula I in plasma” value ([1]; male golden hamsters, skin application 4 mg, 2 h, individual animals No. 4, 5, 6) was 10.6 ng/mL, the “Concentration of compound of formula I in plasma” value ([1]; male golden hamsters, skin application 4 mg, 4 h, individual animals No. 4, 5, 6) was 4.42 ng/mL and the concentration at 0.5 h ([1]; male, hamster, plasma, topical, 4 mg, male golden hamsters, skin application 4 mg, 0.5 h, individual animals No. 4, 5, 6, read-out: Concentration of compound of formula I in plasma) was < 0 ng/mL. For the same compound, the concentration at 1 h ([1]; male, hamster, plasma, topical, 4 mg, male golden hamsters, skin application 4 mg, 1 h, individual animals No. 4, 5, 6, read-out: Concentration of compound of formula I in plasma) was < 0 ng/mL, the concentration at 2 h ([1]; male, hamster, plasma, topical, 4 mg, male golden hamsters, skin application 4 mg, 2 h, read-out: Concentration of compound of formula I in plasma, Mean) was 11 ng/mL and the concentration at 4 h ([1]; male, hamster, plasma, topical, 4 mg, male golden hamsters, skin application 4 mg, 4 h, read-out: Concentration of compound of formula I in plasma, Mean) was 4 ng/mL. For the same compound, the concentration at 8 h ([1]; male, hamster, right sebaceous gland, topical, 1.2 mg, Right sebaceous gland, dose 1.2 mg, individual animals No. 1-3, read-out: Concentration in sebaceous glands) was 9170 ng/mL, the concentration at 8 h ([1]; male, hamster, right sebaceous gland, topical, 4 mg, Right sebaceous gland, dose 4 mg, individual animals No. 4-6, read-out: Concentration in sebaceous glands) was 26600 ng/mL and the concentration at 8 h ([1]; male, hamster, sebaceous glands (left and right), topical, 1.2 mg, left and right sebaceous glands, dose 1.2 mg, read-out: Concentration mean in sebaceous glands) was 13500 ng/mL. It also gave a concentration at 8 h ([1]; male, hamster, sebaceous glands (left and right), topical, 4 mg, left and right sebaceous glands, dose 4 mg, read-out: Concentration mean in sebaceous glands) of 24200 ng/mL and a solubility at 24 h [2] of 6440 µg/mL.
